Patent publication US5807535A, “Metal complexes of hydroxyaryl containing aminocarboxylic acid chelating agents” (Australian Nuclear Science & Technology Organisation, priority 1992, dated 1998)

Legend:
[1] = Biodistribution of 67Ga complexes in mice; assay type: in vivo, balb/c mice
Outline: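 Ligand labelled with 67Ga citrate at pH 12, 40 °C for 40 min, diluted in saline and filter-sterilised. Balb/c mice given ~3.7×10^5 Bq intravenously via tail vein; five animals sacrificed at each of six time points.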

[2] = Biodistribution of 99mTc complexes in mice; assay type: in vivo, Balb/c mice
Outline: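 Chelator (approx. 1 mg/ml final) labelled with 99mTc via excess stannous chloride at pH approx. 6, labelling efficacy checked by ITLC-SG. Complexes diluted to 15 μCi/100 μl in saline before dosing to mice.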

In the case of `CC(C)(C)c1ccc(O)c(NC(=O)CN(CCN(CC(=O)O)CC(=O)Nc2cc(C(C)(C)C)ccc2O)CC(=O)O)c1` [Compound 4], the biodistribution bone ([1]; 1 min) is reported as 3.20 % ID, the biodistribution kidney ([1]; 1 min) is reported as 6.91 % ID and the biodistribution liver ([1]; 1 min) is reported as 39.06 % ID. For the same compound, the biodistribution muscle ([1]; 1 min) was 11.34 % ID, the biodistribution skin ([1]; 1 min) was 11.94 % ID and the biodistribution spleen ([1]; 1 min) was 0.15 % ID. It also gave a biodistribution bone ([1]; 3 min) of 1.31 % ID, a biodistribution kidney ([1]; 3 min) of 2.12 % ID and a biodistribution liver ([1]; 3 min) of 43.23 % ID. The biodistribution muscle ([1]; 3 min) was 5.08 % ID, the biodistribution skin ([1]; 3 min) was 8.12 % ID and the biodistribution spleen ([1]; 3 min) was 0.04 % ID. For the same compound, the biodistribution bone ([1]; 5 min) was 0.98 % ID, the biodistribution kidney ([1]; 5 min) was 1.59 % ID and the biodistribution liver ([1]; 5 min) was 39.61 % ID. It also gave a biodistribution muscle ([1]; 5 min) of 4.29 % ID, a biodistribution skin ([1]; 5 min) of 8.22 % ID and a biodistribution spleen ([1]; 5 min) of 0.03 % ID. For the same compound, the biodistribution bone ([1]; 10 min) was 0.20 % ID, the biodistribution kidney ([1]; 10 min) was 0.43 % ID and the biodistribution liver ([1]; 10 min) was 8.29 % ID. It also gave a biodistribution muscle ([1]; 10 min) of 0.65 % ID, a biodistribution skin ([1]; 10 min) of 2.92 % ID and a biodistribution spleen ([1]; 10 min) of 0.00 % ID. The biodistribution bone ([1]; 30 min) was 0.13 % ID, the biodistribution kidney ([1]; 30 min) was 0.17 % ID and the biodistribution liver ([1]; 30 min) was 1.06 % ID. The biodistribution muscle ([1]; 30 min) was 0.32 % ID, the biodistribution skin ([1]; 30 min) was 0.18 % ID and the biodistribution spleen ([1]; 30 min) was 0.00 % ID. For the same compound, the biodistribution kidney ([1]; 120 min) was 0.07 % ID, the biodistribution liver ([1]; 120 min) was 0.29 % ID and the biodistribution muscle ([1]; 120 min) was 0.21 % ID. The biodistribution skin ([1]; 120 min) was 0.15 % ID, the biodistribution spleen ([1]; 120 min) was 0.01 % ID and the “biodistribution GIT” value ([2]; 1 min) was 3.96 % Injected dose. For the same compound, the biodistribution bladder ([2]; 1 min) was 0.06 % Injected dose, the biodistribution blood ([2]; 1 min) was 34.01 % Injected dose and the biodistribution bone ([2]; 1 min) was 6.4 % Injected dose. The biodistribution heart ([2]; 1 min) was 0.6 % Injected dose, the biodistribution kidney ([2]; 1 min) was 7.83 % Injected dose and the biodistribution liver ([2]; 1 min) was 31.82 % Injected dose. The biodistribution lungs ([2]; 1 min) was 1.29 % Injected dose, the biodistribution muscle ([2]; 1 min) was 11.85 % Injected dose and the biodistribution skin ([2]; 1 min) was 8.94 % Injected dose. It also gave a biodistribution spleen ([2]; 1 min) of 0.21 % Injected dose, a biodistribution stomach ([2]; 1 min) of 0.52 % Injected dose and a biodistribution tail ([2]; 1 min) of 4.62 % Injected dose. For the same compound, the biodistribution urine ([2]; 1 min) was 0 % Injected dose, the “biodistribution GIT” value ([2]; 3 min) was 8.34 % Injected dose and the biodistribution bladder ([2]; 3 min) was 0.09 % Injected dose. For the same compound, the biodistribution blood ([2]; 3 min) was 12.06 % Injected dose, the biodistribution bone ([2]; 3 min) was 2.5 % Injected dose and the biodistribution heart ([2]; 3 min) was 0.22 % Injected dose. The biodistribution kidney ([2]; 3 min) was 6.27 % Injected dose, the biodistribution liver ([2]; 3 min) was 40.23 % Injected dose and the biodistribution lungs ([2]; 3 min) was 0.56 % Injected dose. The biodistribution muscle ([2]; 3 min) was 9.92 % Injected dose, the biodistribution skin ([2]; 3 min) was 9.02 % Injected dose and the biodistribution spleen ([2]; 3 min) was 0.12 % Injected dose. It also gave a biodistribution stomach ([2]; 3 min) of 0.61 % Injected dose, a biodistribution tail ([2]; 3 min) of 2.02 % Injected dose and a biodistribution urine ([2]; 3 min) of 0.84 % Injected dose. For the same compound, the “biodistribution GIT” value ([2]; 5 min) was 13.7 % Injected dose, the biodistribution bladder ([2]; 5 min) was 0.04 % Injected dose and the biodistribution blood ([2]; 5 min) was 7.87 % Injected dose. It also gave a biodistribution bone ([2]; 5 min) of 2.84 % Injected dose, a biodistribution heart ([2]; 5 min) of 0.16 % Injected dose and a biodistribution kidney ([2]; 5 min) of 4.18 % Injected dose. The biodistribution liver ([2]; 5 min) was 30.24 % Injected dose, the biodistribution lungs ([2]; 5 min) was 0.68 % Injected dose and the biodistribution muscle ([2]; 5 min) was 7.77 % Injected dose. For the same compound, the biodistribution skin ([2]; 5 min) was 8.67 % Injected dose, the biodistribution spleen ([2]; 5 min) was 0.1 % Injected dose and the biodistribution stomach ([2]; 5 min) was 3.96 % Injected dose. The biodistribution tail ([2]; 5 min) was 4.63 % Injected dose, the biodistribution urine ([2]; 5 min) was 1.55 % Injected dose and the “biodistribution GIT” value ([2]; 10 min) was 33.63 % Injected dose. It also gave a biodistribution bladder ([2]; 10 min) of 0.17 % Injected dose, a biodistribution blood ([2]; 10 min) of 5.04 % Injected dose and a biodistribution bone ([2]; 10 min) of 2.08 % Injected dose. For the same compound, the biodistribution heart ([2]; 10 min) was 0.13 % Injected dose, the biodistribution kidney ([2]; 10 min) was 3.57 % Injected dose and the biodistribution liver ([2]; 10 min) was 21.19 % Injected dose. For the same compound, the biodistribution lungs ([2]; 10 min) was 0.52 % Injected dose, the biodistribution muscle ([2]; 10 min) was 4.95 % Injected dose and the biodistribution skin ([2]; 10 min) was 7.3 % Injected dose. The biodistribution spleen ([2]; 10 min) was 0.07 % Injected dose, the biodistribution stomach ([2]; 10 min) was 0.7 % Injected dose and the biodistribution tail ([2]; 10 min) was 3.58 % Injected dose. The biodistribution urine ([2]; 10 min) was 4.27 % Injected dose, the “biodistribution GIT” value ([2]; 30 min) was 39.97 % Injected dose and the biodistribution bladder ([2]; 30 min) was 0.08 % Injected dose. It also gave a biodistribution blood ([2]; 30 min) of 3.88 % Injected dose, a biodistribution bone ([2]; 30 min) of 1.67 % Injected dose and a biodistribution heart ([2]; 30 min) of 0.05 % Injected dose. For the same compound, the biodistribution kidney ([2]; 30 min) was 3.67 % Injected dose, the biodistribution liver ([2]; 30 min) was 12.48 % Injected dose and the biodistribution lungs ([2]; 30 min) was 0.26 % Injected dose. It also gave a biodistribution muscle ([2]; 30 min) of 3.35 % Injected dose, a biodistribution skin ([2]; 30 min) of 4 % Injected dose and a biodistribution spleen ([2]; 30 min) of 0.06 % Injected dose. For the same compound, the biodistribution stomach ([2]; 30 min) was 4.84 % Injected dose, the biodistribution tail ([2]; 30 min) was 1.91 % Injected dose and the biodistribution urine ([2]; 30 min) was 3.21 % Injected dose.
